Results as given in US10253355B2, “Instrument and system for rapid microorganism identification and antimicrobial agent susceptibility testing” (Accelerate Diagnostics, Inc., priority 2015, dated 2019).
Read-outs that look alike come from different tables or passages of the source.

Tests used:
[1] = test system: Escherichia coli ATCC 25922; conditions: in µg/mL (unit assumed), cited from earlier work; for Organism QC Range (MIC): AST QC panel (Table 9), CLSI recommended isolate E. coli ATCC 25922; for Expected (MIC acceptance range): E. coli ATCC 25922
[2] = test system: Escherichia coli ATCC 25922; experiment: AST QC assay on AD-1 instrument, QC isolate E. coli ATCC 25922; type: cell-based; conditions: unit assumed
Description: (§1) The reportable range for the AST QC assay in some examples are adjusted such that the selected QC isolates have an MIC that is within the reportable range of the QC Assay. These extended ranges are only applied to QC testing and are not applied to AST assessment of patient samples. The process for assigning an MIC value to the QC organisms is the same or similar to that used for patient samples. […] This approach allows testing of, for example, CLSI recommended QC isolates without affecting the algorithms that are optimized around antimicrobial breakpoints. The algorithms used in ID QC or AST QC testing include those described above, for example, when the QC test samples are microbial isolates. For ID QC testing utilizing target microbial nucleic acids coupled to a bead, positive detection is achieved by comparing the cumulative count in the target (e.g., Green fluorescence channel) only against a threshold of objects that have brightness exceeding bead autofluorescence. Negative control detection is achieved by doing the same for eubacteria (e.g., Red fluorescence) channel only. For example, the number of bright red objects should not exceed a threshold in order to pass negative control.
(§2) The results of the identification assay drive antibiotic selection for antimicrobial susceptibility testing. The remaining samples undergo a pre-growth step to normalize growth rates during the approximately 1-hour FISH ID assay. The concentration of organisms in the purified inoculum was determined by repeating the quantitation process with a universal nucleic acid stain as previously described herein. […] Following cell immobilization, antimicrobial solutions in Mueller-Hinton agar were dispensed into the flowcells. Different antimicrobials were tested in separate flowcells, and only a single concentration of each antimicrobial was used. A growth control consisting of Mueller-Hinton agar without any antimicrobial was included for each run. A dark-field microscope and camera produced time-lapse images approximately every 10 minutes of progenitor cells growing into clones of daughter cells in each flowcell. The agar ensured daughter cells were immobilized and remained localized to each growing clone. Resistant clones grew while susceptible clones arrest or lyse over time (FIG. 90).
(§3) Custom image analysis software assigned unique spatial XY coordinates to individual progenitor cells (FIG. 91), allowing each growing clone across a series of time-lapse images to be identified. The intensity of each clone can be used as a metric of clone mass in each image. By measuring over time, this metric was used to generate growth curves for each individual clone (FIG. 92). The pattern of cell responses was used to determine the susceptibility of the overall population. Computer algorithms developed for each organism-antimicrobial combination convert microbial growth response into an MIC value using a mathematical regression model based on the response of isolates with known MICs for a single-concentration of a given antimicrobial. Once obtained, MIC values were interpreted using FDA, CLSI or EUCAST breakpoints along with expert rules to determine the categorical result (susceptible (S), intermediate (I) or resistant (R)). In addition to MICs, this technique was applied to phenotypic resistance mechanism detection.
(§4) In this example, the AST QC consumable insert consisted of 8 wells configured in a “pi” shape, as shown in the dark gray shading in FIG. 109. The AST QC panel was composed of seven CLSI recommended isolates that provide “on-scale” MIC results for all of the antimicrobial agents included in a sample blood culture test. A C. albicans isolate was used for Quality Control assessment of the […] component of the AD-1 Instrument System.
(§5) Table 9 below lists each organism and the corresponding antimicrobial agent that was tested in the AST QC assay. […]

[3] = test system: Staphylococcus aureus ATCC 29213; experiment: AST QC assay on AD-1 instrument, QC isolate S. aureus ATCC 29213; type: cell-based; conditions: for Result (phenotypic positive/negative test): resistance phenotype; for Result (MIC value): unit assumed
Description: as §1
In addition, the CLSI required QC isolates for the relevant antimicrobial resistance phenotype assays (MRSA/MSA, and MLSb) may also be tested. When following CLSI recommendations, routine testing of a designated susceptible isolate as well as testing of designated resistant isolates for each new lot and/or new shipment of reagent kits should be performed. These isolates, therefore, may be included in the QC Assay. For example, Cefoxitin may be tested with Staphylococcus aureus ATCC 29213 as the susceptible isolate and Staphylococcus aureus ATCC 43300 may be tested as the resistant isolate.
as §2
Custom image analysis software assigned unique spatial XY coordinates to individual progenitor cells (FIG. 91), allowing each growing clone across a series of time-lapse images to be identified. The intensity of each clone can be used as a metric of clone mass in each image. By measuring over time, this metric was used to generate growth curves for each individual clone (FIG. 92). The pattern of cell responses was used to determine the susceptibility of the overall population. […]

[4] = test system: Staphylococcus aureus ATCC 43300; experiment: AST QC assay on AD-1 instrument, QC isolate S. aureus ATCC 43300; type: cell-based; conditions: resistance phenotype
Description: as §1, with “For example, the number of bright red objects should not exceed a threshold in order to pass negative control.” left out
The results of the identification assay drive antibiotic selection for antimicrobial susceptibility testing. […] The concentration of organisms in the purified inoculum was determined by repeating the quantitation process with a universal nucleic acid stain as previously described herein. […]

[5] = test system: methicillin-resistant S. aureus (MRSA); experiment: Time-lapse imaging of isolates growing in cefoxitin (MRSA); type: cell-based; conditions: by 4.5 hours (FIG. 90)
Experimental: as §2

[6] = test system: Staphylococcus aureus ATCC 29213; conditions: cited from earlier work
[7] = test system: methicillin-susceptible S. aureus (MSSA); experiment: Time-lapse imaging of isolates growing in cefoxitin (MSSA); type: cell-based; conditions: by 4.5 hours (FIG. 90)
Experimental: as §2

[8] = test system: Staphylococcus aureus ATCC 43300; conditions: S. aureus ATCC 43300, cited from earlier work
[9] = test system: Enterococcus faecalis ATCC 29212; conditions: in µg/mL (unit assumed), cited from earlier work; for Organism QC Range (MIC): AST QC panel (Table 9), CLSI recommended isolate E. faecalis ATCC 29212; for Expected (MIC acceptance range): E. faecalis ATCC 29212
[10] = test system: Enterococcus faecalis ATCC 29212; experiment: AST QC assay on AD-1 instrument, QC isolate E. faecalis ATCC 29212; type: cell-based; conditions: unit assumed
Description: as §1, §2, §3, §4, §5

[11] = test system: Escherichia coli ATCC 35218; experiment: AST QC assay on AD-1 instrument, QC isolate E. coli ATCC 35218; type: cell-based; conditions: unit assumed
Description: as §1
as §2, with “A dark-field microscope and camera produced time-lapse images approximately every 10 minutes of progenitor cells growing into clones of daughter cells in each flowcell. The agar ensured daughter cells were immobilized and remained localized to each growing clone. Resistant clones grew while susceptible clones arrest or lyse over time (FIG. 90).” left out

Pseudomonas strains = experiment: Growth of Pseudomonas strains in nutrient-depleted vs standard Mueller-Hinton media with antibiotic, automated microscopy; type: cell-based
Experimental: A series of growth media was formulated with […] strength of standard Mueller-Hinton nutrients (3 g beef infusion 17.5 g casein hydrolysate, 1.5 g starch, the final product being pH adjusted to neutral at 25° C.) while maintaining the agar concentration at 0.94% in the culture media. The effect of this depleted-nutrient media formulation on bacterial cell growth was evaluated with more than 50 strains of Pseudomonas in the presence of a panel of beta-lactam antibiotics. Cells were imaged using automated microscopy as described above. […] FIGS. 85A-C plots the log of bacterial dark phase intensity versus time, which is proportional to measuring cell mass in culture. FIGS. 85D-F are a quantitative representation of the data presented in panels FIGS. 85A-C expressed as rate of bacterial cell division.

## Cc1nnc(SCC2=C(C(=O)O)N3C(=O)[C@@H](NC(=O)Cn4cnnn4)[C@H]3SC2)s1 [Cefazolin]
[1]
  Organism QC Range (MIC): 1-4
[1]; AST only report (Table 10)
  Expected (MIC acceptance range): 1-4
[2]; AST only report (Table 10)
  Result (MIC value): 2 µg/mL

## CO[C@@]1(NC(=O)Cc2cccs2)C(=O)N2C(C(=O)O)=C(COC(N)=O)CS[C@@H]21 [Cefoxitin]
[3]; AST only report (Table 10)
  Result (phenotypic positive/negative test): NEG
[3]; ID and AST report (Table 11)
  Result (phenotypic positive/negative test): NEG
[4]; AST only report (Table 10)
  Result (phenotypic positive/negative test): POS
[4]; ID and AST report (Table 11)
  Result (phenotypic positive/negative test): POS
[5]
  Clone growth in time-lapse images: continue to grow
[6]; AST QC panel (Table 9), S. aureus ATCC 29213
  Organism QC Range (Positive/Negative phenotype): Negative
[6]; AST only report (Table 10), S. aureus ATCC 29213
  Expected (phenotypic positive/negative test): NEG
[6]; ID and AST report (Table 11), S. aureus ATCC 29213
  Expected (phenotypic positive/negative test): NEG
[7]
  Clone growth in time-lapse images: arrested or lysed
[8]; AST QC panel (Table 9)
  Organism QC Range (Positive/Negative phenotype): Positive
[8]; AST only report (Table 10)
  Expected (phenotypic positive/negative test): POS
[8]; ID and AST report (Table 11)
  Expected (phenotypic positive/negative test): POS

## CC(C)(O/N=C(\C(=O)N[C@@H]1C(=O)N2C(C(=O)[O-])=C(C[n+]3ccccc3)CS[C@H]12)c1csc(N)n1)C(=O)O [Ceftazidime]
[1]
  Organism QC Range (MIC): 1-4
[1]; AST only report (Table 10)
  Expected (MIC acceptance range): 0.06-0.5
[1]; ID and AST report (Table 11)
  Expected (MIC acceptance range): 0.06-0.5
[2]; AST only report (Table 10)
  Result (MIC value): 0.25 µg/mL
[2]; ID and AST report (Table 11)
  Result (MIC value): 0.25 µg/mL

## CO/N=C(\C(=O)N[C@@H]1C(=O)N2C(C(=O)O)=C(CSc3nc(=O)c(=O)[nH]n3C)CS[C@H]12)c1csc(N)n1 [Ceftriaxone]
[1]
  Organism QC Range (MIC): 0.03-0.12
[1]; AST only report (Table 10)
  Expected (MIC acceptance range): 0.03-0.125
[1]; ID and AST report (Table 11)
  Expected (MIC acceptance range): 0.03-0.125
[2]; AST only report (Table 10)
  Result (MIC value): 0.0525 µg/mL
[2]; ID and AST report (Table 11)
  Result (MIC value): 0.0525 µg/mL

## CC[C@H]1OC(=O)[C@H](C)[C@@H](O[C@H]2C[C@@](C)(OC)[C@@H](O)[C@H](C)O2)[C@H](C)[C@@H](O[C@@H]2O[C@H](C)C[C@H](N(C)C)[C@H]2O)[C@](C)(O)C[C@@H](C)C(=O)[C@H](C)[C@@H](O)[C@]1(C)O [Erythromycin]
[3]; AST only report (Table 10)
  Result (MIC value): 0.6 µg/mL
[6]; AST QC panel (Table 9), CLSI recommended isolate S. aureus ATCC 29213, in µg/mL (unit assumed)
  Organism QC Range (MIC): 0.25-1
[6]; AST only report (Table 10), S. aureus ATCC 29213, in µg/mL (unit assumed)
  Expected (MIC acceptance range): 0.25-1

## CC(=O)NC[C@H]1CN(c2ccc(N3CCOCC3)c(F)c2)C(=O)O1 [Linezolid]
[9]
  Organism QC Range (MIC): 1-4
[9]; AST only report (Table 10)
  Expected (MIC acceptance range): 1-4
[9]; ID and AST report (Table 11)
  Expected (MIC acceptance range): 1-4
[10]; AST only report (Table 10)
  Result (MIC value): 2 µg/mL
[10]; ID and AST report (Table 11)
  Result (MIC value): 2 µg/mL

## CN(C)c1ccc(O)c2c1C[C@H]1C[C@H]3[C@H](N(C)C)C(O)=C(C(N)=O)C(=O)[C@@]3(O)C(O)=C1C2=O [Minocycline]
[2]; AST only report (Table 10)
  Result (MIC value): 0.5 µg/mL
[2]; ID and AST report (Table 11)
  Result (MIC value): 0.5 µg/mL

## CN[C@H](CC(C)C)C(=O)N[C@H]1C(=O)N[C@@H](CC(N)=O)C(=O)N[C@H]2C(=O)N[C@H]3C(=O)N[C@H](C(=O)N[C@H](C(=O)O)c4cc(O)cc(O)c4-c4cc3ccc4O)[C@H](O)c3ccc(c(Cl)c3)Oc3cc2cc(c3O[C@@H]2O[C@H](CO)[C@@H](O)[C@H](O)[C@H]2O[C@H]2C[C@](C)(N)[C@H](O)[C@H](C)O2)Oc2ccc(cc2Cl)[C@H]1O [Vancomycin]
[9]
  Organism QC Range (MIC): 0.5-2
[9]; AST only report (Table 10)
  Expected (MIC acceptance range): 1-4
[9]; ID and AST report (Table 11)
  Expected (MIC acceptance range): 1-4
[10]; AST only report (Table 10)
  Result (MIC value): 2 µg/mL
[10]; ID and AST report (Table 11)
  Result (MIC value): 2 µg/mL

## Ampicillin-Sulbactam
[11]; AST only report (Table 10)
  Result (MIC value): 16 µg/mL

## Piperacillin-Tazobactam
Pseudomonas strains; Pseudomonas isolate of FIGS. 85A-F
  Susceptibility of the bacteria: susceptible
Pseudomonas strains; nutrient-depleted media (approx. 87% reduction in Mueller-Hinton nutrients), within 3.5 hours
  Bacterial growth / replication pattern in presence of antibiotic: substantially impaired growth
Pseudomonas strains; standard Mueller-Hinton media, 2 to 3.5 hours of exposure
  Antibiotic effect on filamentous cells: no discernable antibiotic effect
[11]; AST only report (Table 10)
  Result (MIC value): 1 µg/mL
[11]; ID and AST report (Table 11)
  Result (MIC value): 1 µg/mL

## Trimethoprim-Sulfamethoxazole
[3]; AST only report (Table 10)
  Result (MIC value): 0.25 µg/mL
[3]; ID and AST report (Table 11)
  Result (MIC value): 0.25 µg/mL
